From PubChem BioAssay AID179 (DTP/NCI, 2004) come the findings set out here.

The test concerns CEM cells HIV-1 protection, formazan growth assay. Nature of the test: NCI AIDS Antiviral Assay. Particulars: for IC50: measured here: growth of uninfected CEM cells. An outline of the steps: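 Soluble formazan readout of cell growth; CEM cells ± HIV-1; 5 drug concs. ≥50% protection → retest; ≥50% again = moderately active; reproducible 100% = confirmed active.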

Calls of active or inactive are those of the source.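 Rule for the calls: active = compounds giving half or more protection of infected cells from virus-caused growth loss, again on retest; inactive = the rest.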

As usually defined, the EC50 is the concentration giving half of the maximal effect. A word on the IC50: it is the concentration at which inhibition is half-maximal. A higher IC50 goes with lower potency. Regarding `CC(C)(C)[Si](C)(C)Oc1cc(CO)cc2c1cc(=N)o[n+]2[O-]`, the EC50 was above 200 µM and the IC50 stood at 10.2 µM.
For the compound `C(=Nc1cccnc1)c1ccc2ccccc2n1`, the EC50 was above 81.3 µM and the IC50 turned out to be 44.7 µM.
The like results for `C=C1CC[N+]2(C)CCCC12` (configuration not stated) were, in that order, above 1150 µM and above 1150 µM.
The corresponding values for `CN(c1ccccc1Cl)S(=O)(=O)c1ccc([N+](=O)[O-])cc1` are above 200 µM and above 200 µM.
The corresponding values for `CCCN1C(=O)CN(S(=O)(=O)c2ccc(Cl)cc2)C1=O` are above 200 µM and above 200 µM.
On to `Nc1c(Br)cc2snc3c2c1C(=O)c1ccccc1-3`, for which the EC50 is above 15.8 µM and the IC50 was 8.51 µM.
The like results for `Nc1c(-c2ccccc2)c2ccc([N+](=O)[O-])cc2c(=O)n1-c1cccc(C(=O)O)c1` were, in that order, above 200 µM and 135 µM.
The like results for `Fc1ccc(F)c(C=NC23CC4CC(CC(C4)C2)C3)c1` were, in that order, above 200 µM and above 200 µM.
The corresponding values for `CNC(=O)CCNC(=O)CCC(=O)OC` are above 200 µM and above 200 µM.
With `C=CCC12CC(O)C(O)CC1(O)OC(c1cc(OC)c(OC)c(OC)c1)C2C` (configuration not stated), the EC50 was above 200 µM and the half-inhibitory concentration (IC50) is above 200 µM.
Turning to `C1CCC(OC2CSC2)OC1` (configuration not stated), the EC50 is above 389 µM and the IC50 is above 389 µM.
Consider `COC(=O)N1CC=CC2(CCOCc3ccccc3)CC[C@@](O)(c3ccccc3NC(=O)C(C)(C)C)C(=O)C12` (some centres not stated), for which the EC50 is above 35.5 µM and the IC50 was above 35.5 µM.
Regarding `CCOC(=O)C(Br)=C1OC(=O)c2ccccc2-c2ccccc21` (mixture of isomers), the EC50 is above 36.3 µM and the IC50 was above 36.3 µM.
Take `Cn1cc(NC(=O)c2cc([N+](=O)[O-])cn2C)cc1C(=O)Nc1cc(S(=O)(=O)O)c2cc(S(=O)(=O)O)cc(S(=O)(=O)O)c2c1`: the EC50 was 275 µM and the IC50 amounted to 347 µM.
Take `COc1ccc(OC)c(NC(=S)N/N=C/c2cccc3ccccc23)c1`: the EC50 is above 200 µM and the IC50 is 1.05 µM.
For the compound `CC1=C\[C@@H](O)CC(=O)Cc2nc(co2)C(=O)N2CCC=C2C(=O)O[C@H](C(C)C)[C@H](C)/C=C/C(=O)NC\C=C\1`, the EC50 was above 9.77 µM and the IC50 is above 9.77 µM.
For the compound `Nc1nc(N)c2c(n1)C(=O)N(Cc1ccccc1)C2`, the outcome was inactive.
In the case of `Cc1ccccc1C(C#N)/C(=N/NC(=O)c1cc2ccccc2cc1O)C(=O)Nc1cccc(Cl)c1` (configuration not stated), the EC50 is above 191 µM and the IC50 was found to be 4.9 µM.
With `COC(=O)[C@@H]1CO[C@H](C(C)(C)C)N1C(=O)N1C=CC(=O)C[C@H]1C`, the EC50 is above 200 µM and the IC50 is above 200 µM.
`CCc1c(O)c(O)c(C(C)=O)c2c(O)c(-c3c(C)cc4c(CC)c(O)c(O)c(C(C)=O)c4c3O)c(C)cc12`: the EC50 is above 69.2 µM and the IC50 was 2.24 µM.
The like results for `CNC(=O)N(CCC#N)[C@H]1CCCC[C@@H]1N(C(=O)NC)c1ccccc1` were, in that order, above 200 µM and above 200 µM.
The corresponding values for `O=S(=O)(c1ccccc1)C1(Sc2ccccc2)CC(Br)[C@@H](Br)C1` (some centres not stated) are above 15.1 µM and above 15.1 µM.
As to `O=C(O)c1cnc2c(ccc3[nH]cccc32)c1=O`, the EC50 is above 75.9 µM and the IC50 was above 75.9 µM.
With `CCN(CC)CCCOP(=O)(OCCCN(CC)CC)OCCCN(CC)CC`, the EC50 was 20 µM and the IC50 was above 200 µM.
In the case of `CCOC(NC(=O)CC)(C(F)(F)F)C(F)(F)F`, the result was inactive.
For the compound `COc1cc2c(cc1O)C1Cc3cc(O)c(OC)cc3C(C2)N1C` (configuration not stated), the EC50 was above 759 µM and the IC50 was 49 µM.
The corresponding values for `O=[N+]([O-])c1ccc(S(=O)(=O)NN=C2CCCCC2)cc1` are above 316 µM and 178 µM.
Consider `COC(=O)C(=O)C(/C=N/C(=S)NCCc1ccc(OC)c(OC)c1)=C(/O)c1ccc([N+](=O)[O-])cc1`, for which the EC50 was above 100 µM and the IC50 is above 100 µM.
In the case of `NCCS`, the EC50 is above 1410 µM and the 50% inhibitory concentration (IC50) was 525 µM.
With `NC(=O)c1ccc2cc(O)c(O)cc2c1`, the EC50 was above 245 µM and the IC50 turned out to be 34.7 µM.
With `COC(=O)c1onc(-c2c(OC)cc(OC)cc2OC)c1C(=O)OC`, the EC50 was above 141 µM and the IC50 is 115 µM.
The corresponding values for `Cn1c2c(c3ccccc31)CCN(CCCCN1CCCCC1)C2=O` are above 372 µM and 58.9 µM.
The corresponding values for `O=C(NCCCl)SCCO` are above 1350 µM and above 1350 µM.
Take `CC(C(O)c1ccccc1)N(C)/N=N/c1nc2c([nH]1)c(=O)n(C)c(=O)n2C` (configuration not stated): the EC50 was above 200 µM and the IC50 came to 110 µM.
As for `CC1=NNC(=NCCN(C)C)C/C1=C/c1ccccc1Cl`, the outcome was inactive.
On to `COc1ccc(NC(=O)CC(=O)N2N=C(C)C(N=Nc3ccc(C(=O)O)cc3)C2=O)cc1` (configuration not stated), for which the EC50 is above 200 µM and the IC50 worked out at 95.5 µM.
The like results for `O=C(C(=NC12CC3CC(CC(C3)C1)C2)NNc1ccc([N+](=O)[O-])cc1[N+](=O)[O-])C(Br)C(=O)c1ccccc1` (configuration not stated) were, in that order, above 200 µM and 107 µM.
The corresponding values for `N#Cc1c(N)c(C(=O)Nc2ccc(S(N)(=O)=O)cc2)n2c1CCC2` are above 200 µM and above 200 µM.
On to `O=C(CCc1ccccc1)On1nnc2ccccc2c1=O`, for which the result was inactive.
Turning to `COC(=O)c1nn(-c2ccccc2)c(=O)cc1N=[N+]=[N-]`, the EC50 was above 200 µM and the concentration for half-maximal inhibition (IC50) came out at 112 µM.
Consider `COC(=O)C(C(=O)C(=O)Nc1ccc([N+](=O)[O-])cc1)c1nc2ccc([N+](=O)[O-])cc2[nH]c1=O` (configuration not stated), for which the EC50 was above 57.5 µM and the IC50 was above 57.5 µM.
For the compound `CCOCCN(CCOCC)C(=O)c1ccc2c(c1)no[n+]2[O-]`, the EC50 was above 200 µM and the 50% inhibitory concentration (IC50) was 135 µM.
As for `N#C/C(=C\c1ccccc1)C(NO)Nc1ccccc1` (configuration not stated), the EC50 was above 135 µM and the IC50 was determined as 64.6 µM.
The corresponding values for `C[C@H](CCC1=NCCN1)[C@H]1CC[C@H]2[C@@H]3CC[C@@H]4C[C@H](O)CC[C@]4(C)[C@H]3C[C@H](O)[C@]12C` are above 200 µM and 11.5 µM.
Regarding `CN1CC(=O)N2Cc3ccccc3-n3cccc3C2C1` (configuration not stated), the result was inactive.
Take `CN1CCCC(CNC2C3CC4CC(C3)CC2C4)C1` (configuration not stated): the EC50 is above 138 µM and the IC50 was above 138 µM.
For `CSc1nnc(N(C(C)C)C(C)C)c2nc[nH]c12`, the EC50 is above 200 µM and the IC50 was above 200 µM.
For the compound `Cc1ccc2sc3cc(=O)cc(C)c-3nc2c1`, the EC50 is above 10.7 µM and the IC50 was above 10.7 µM.
With `Nc1cc(-c2ccc(Cl)cc2)nn1-c1nnc2c(n1)[nH]c1ccccc12`, the EC50 was above 200 µM and the IC50 is above 200 µM.
Take `COC(=O)Cc1cc(=O)n2c3ccccc3n(C)c2c1C#N`: the EC50 is above 24.5 µM and the IC50 is above 24.5 µM.
Take `CCOC(=O)NC(=O)c1cn(CCOC(=O)NCCCCCCNC(=O)OCCn2cc(C(=O)NC(=O)OCC)c(=O)[nH]c2=O)c(=O)[nH]c1=O`: the result was inactive.
For the compound `CC(=O)C(N=NC1CCC(S(=O)(=O)NB2N=CS2)CC1)C(=O)Nc1ccccc1C` (configuration not stated), the EC50 was above 11.5 µM and the IC50 was above 11.5 µM.
In the case of `O=C1Oc2ccccc2C(=O)/C1=C/N1C(=O)/C(=C/c2ccc3c(c2)OCO3)SC1=S`, the EC50 was above 200 µM and the IC50 is 20.4 µM.
The like results for `Cc1cn(C2CC(ONC(N)=O)C(CO[Si](C)(C)C(C)(C)C)O2)c(=O)[nH]c1=O` (configuration not stated) were, in that order, above 200 µM and 105 µM.
The corresponding values for `CCCCN(CCCC)C(=O)C(=O)CC(=O)/C=C/c1ccccc1` are above 288 µM and above 288 µM.
`Cn1c(=O)c2c(n(C)c1=O)n1c(SCc3ccccc3)nnc1n2C`: the EC50 is above 200 µM and the IC50 was determined as 182 µM.
The corresponding values for `CCOP(=S)(Nc1cccc(C(F)(F)F)c1)OCC` are above 200 µM and 166 µM.
Consider `CCOC(=O)CC(=O)Nc1cccc2sc3ncccc3c(=O)c12`, for which the EC50 was above 200 µM and the IC50 came to 30.2 µM.
The like results for `O=C(Cc1csc(N=Nc2c(O)[nH]c3ccccc23)n1)Nc1ccccc1` were, in that order, above 200 µM and 112 µM.
The like results for `Cc1cc(NS(=O)(=O)c2ccc(NC(=O)c3ccc4nc5ccccc5c(Nc5ccc(S(=O)(=O)Nc6cc(C)on6)cc5)c4c3)cc2)no1` were, in that order, 67.6 µM and above 100 µM.
`COC(=O)C(Cc1ccccc1)NC(=O)c1ccc(CNC(=S)NCc2cccc(CNC(=S)NCc3ccccc3)c2)cc1` (configuration not stated): the EC50 is above 200 µM and the IC50 was determined as 148 µM.
`COc1cc2c(cc1O)[C@@]1(Cc3ccc(OC)c(OC)c3)CCC(=O)N1CC2`: the outcome was inactive.
For the compound `O=C(CC1(O)C(=O)Nc2c(Cl)cc(Cl)cc21)c1cccc([N+](=O)[O-])c1` (configuration not stated), the EC50 was above 19.1 µM and the IC50 is above 19.1 µM.
As to `COC(=O)c1ccc(SSc2ccc(C(=O)OC)cc2[N+](=O)[O-])c([N+](=O)[O-])c1`, the result was inactive.
For `C=CCNC(=S)/N=C\c1c(C)[nH]n(-c2ccccc2)c1=O`, the EC50 was above 100 µM and the IC50 came out at 95.5 µM.
The like results for `O=C(O)c1cc(I)cc(I)c1O` were, in that order, above 646 µM and 107 µM.
The corresponding values for `CCOC(=O)C1C(c2ccc([N+](=O)[O-])cc2)NC(c2ccc([N+](=O)[O-])cc2)C(C(=O)OC)S1(=O)=O` (configuration not stated) are above 3.98 µM and above 3.98 µM.
For `COc1ccc(/C(=N/O)c2ccccc2-c2nc3ccccc3c(=O)n2-c2ccc(S(=O)(=O)Nc3ncccn3)cc2)cc1C`, the EC50 is above 200 µM and the IC50 was 49 µM.
The corresponding values for `N#C/C(=C\c1ccc(O)c(O)c1)C(N)=O` are above 25.1 µM and 10.5 µM.
As to `CC1CNC(c2ccc(NC(=O)Nc3cc(C(=O)Nc4ccc(C5=NC(C)CN5)cc4)ccc3C(=O)Nc3ccc(C4=NC(C)CN4)cc3)cc2)=N1` (configuration not stated), the EC50 is above 100 µM and the IC50 was above 100 µM.
